Results as given in ChEMBL document CHEMBL3045610, “Pyridoquinolones containing azetidinones: synthesis and their biological evaluation” (2012).
In brackets after ≈: the same amount, converted by molar mass.

Legend:
Type in all cases: functional
Streptococcus pyogenes = experiment: Antibacterial activity against Streptococcus pyogenes by broth dilution method
Escherichia coli = experiment: Antibacterial activity against Escherichia coli by broth dilution method
Aspergillus clavatus = experiment: Antifungal activity against Aspergillus clavatus by broth dilution method
Staphylococcus aureus = experiment: Antibacterial activity against Staphylococcus aureus by broth dilution method
Aspergillus niger = experiment: Antifungal activity against Aspergillus niger by broth dilution method
Candida albicans = experiment: Antifungal activity against Candida albicans by broth dilution method
Pseudomonas aeruginosa = experiment: Antibacterial activity against Pseudomonas aeruginosa by broth dilution method
[1] = system: Mycobacterium tuberculosis; experiment: Antimicrobial activity against Mycobacterium tuberculosis H37Rv by broth dilution method

SMILES	MIC (Streptococcus pyogenes) [µg/mL]	MIC (Escherichia coli) [µg/mL]	MIC (Aspergillus clavatus) [µg/mL]	MIC (Staphylococcus aureus) [µg/mL]	MIC (Aspergillus niger) [µg/mL]	MIC (Candida albicans) [µg/mL]	MIC (Pseudomonas aeruginosa) [µg/mL]	MIC [1] [µg/mL]
Cc1cc(Cl)nc2ccc3c(=O)c(C(=O)N/N=C/c4ccccc4Cl)c[nH]c3c12	200 (≈ 470 µM)	500 (≈ 1180 µM)	> 1000	100 (≈ 235 µM)	500 (≈ 1180 µM)	250 (≈ 588 µM)	500 (≈ 1180 µM)	
Cc1cc(Cl)nc2ccc3c(=O)c(C(=O)N/N=C/c4cccc([N+](=O)[O-])c4O)c[nH]c3c12	500 (≈ 1110 µM)	150 (≈ 332 µM)	500 (≈ 1110 µM)	500 (≈ 1110 µM)	500 (≈ 1110 µM)	200 (≈ 443 µM)	200 (≈ 443 µM)	62.5 (≈ 138 µM)
Cc1cc(Cl)nc2ccc3c(=O)c(C(=O)NN4C(=O)C(Cl)C4c4ccccc4Cl)c[nH]c3c12 (stereo unspecified)	200 (≈ 399 µM)	200 (≈ 399 µM)	250 (≈ 498 µM)	200 (≈ 399 µM)	250 (≈ 498 µM)	100 (≈ 199 µM)	250 (≈ 498 µM)	
Cc1cc(Cl)nc2ccc3c(=O)c(C(=O)NN4C(=O)C(Cl)C4c4ccccc4O)c[nH]c3c12 (stereo unspecified)	500 (≈ 1030 µM)	100 (≈ 207 µM)	1000 (≈ 2070 µM)	500 (≈ 1030 µM)	1000 (≈ 2070 µM)	500 (≈ 1030 µM)	200 (≈ 414 µM)	500 (≈ 1030 µM)
O=C(N[C@H](CO)[C@H](O)c1ccc([N+](=O)[O-])cc1)C(Cl)Cl [CHLORAMPHENICOL]	50 (≈ 155 µM)	50 (≈ 155 µM)		50 (≈ 155 µM)			50 (≈ 155 µM)	
CCOC(=O)c1c[nH]c2c(ccc3nc(Cl)cc(C)c32)c1=O	100 (≈ 316 µM)	250 (≈ 789 µM)	1000 (≈ 3160 µM)	150 (≈ 474 µM)	1000 (≈ 3160 µM)	200 (≈ 631 µM)	250 (≈ 789 µM)	500 (≈ 1580 µM)
COc1ccc(C2C(Cl)C(=O)N2NC(=O)c2c[nH]c3c(ccc4nc(Cl)cc(C)c43)c2=O)cc1 (stereo unspecified)	500 (≈ 1010 µM)	250 (≈ 503 µM)	> 1000	500 (≈ 1010 µM)	> 1000	500 (≈ 1010 µM)	250 (≈ 503 µM)	
CC1(C)S[C@@H]2[C@H](NC(=O)[C@H](N)c3ccccc3)C(=O)N2[C@H]1C(=O)O [AMPICILLIN]	100 (≈ 286 µM)	100 (≈ 286 µM)		250 (≈ 715 µM)			100 (≈ 286 µM)	
COc1ccccc1/C=N/NC(=O)c1c[nH]c2c(ccc3nc(Cl)cc(C)c32)c1=O	250 (≈ 594 µM)	100 (≈ 238 µM)	1000 (≈ 2380 µM)	250 (≈ 594 µM)	1000 (≈ 2380 µM)	500 (≈ 1190 µM)	250 (≈ 594 µM)	250 (≈ 594 µM)
Cc1cc(Cl)nc2ccc3c(=O)c(C(=O)NN4C(=O)C(Cl)C4c4cccc([N+](=O)[O-])c4O)c[nH]c3c12 (stereo unspecified)	500 (≈ 946 µM)	62.5 (≈ 118 µM)	> 1000	500 (≈ 946 µM)	> 1000	500 (≈ 946 µM)	200 (≈ 379 µM)	200 (≈ 379 µM)
Cc1cc(Cl)nc2ccc3c(=O)c(C(=O)NN4C(=O)C(Cl)C4c4ccccc4)c[nH]c3c12 (stereo unspecified)	250 (≈ 535 µM)	100 (≈ 214 µM)	> 1000	250 (≈ 535 µM)	> 1000	500 (≈ 1070 µM)	250 (≈ 535 µM)	250 (≈ 535 µM)
CCn1cc(C(=O)O)c(=O)c2cc(F)c(N3CCNCC3)cc21 [NORFLOXACIN]	10 (≈ 31.3 µM)	10 (≈ 31.3 µM)		10 (≈ 31.3 µM)			10 (≈ 31.3 µM)	
Cc1cc(Cl)nc2ccc3c(=O)c(C(=O)N/N=C/c4ccccc4)c[nH]c3c12	250 (≈ 640 µM)	250 (≈ 640 µM)	> 1000	200 (≈ 512 µM)	> 1000	250 (≈ 640 µM)	250 (≈ 640 µM)	
Cc1cc(Cl)nc2ccc3c(=O)c(C(=O)N/N=C/c4ccccc4O)c[nH]c3c12	200 (≈ 492 µM)	250 (≈ 615 µM)	500 (≈ 1230 µM)	100 (≈ 246 µM)	500 (≈ 1230 µM)	100 (≈ 246 µM)	250 (≈ 615 µM)	200 (≈ 492 µM)
